Reference: US20250099467A1, “COMBINATION THERAPY FOR TREATING ABNORMAL CELL GROWTH” (Verastem, Inc., priority 2022, published 2025)

What was measured:
Type in all cases: cell-based, human
[1] = system: CRC KRAS mutant cell lines; assay: 3D proliferation assay with synergy analysis, CRC panel; conditions: VS-6766 combined with ZN-C3 (WEE1); panel of 9 CRC KRAS mt cell lines; 3D Matrigel, 7 days, CellTiter-Glo; FIG. 1, 2
Experimental: (§1) As examples, human cancer cell lines including non-small cell lung cancer (NSCLC), colorectal cancer (CRC), ovarian cancer and endometrial cancer were grown in 3D conditions. Briefly, 96-well plates were coated with 50 μL of Matrigel (100%) and incubated at 37° C. and 5% CO2 for 30 min in order for the Matrigel to solidify. Cells were seeded in 100 μL of 2% Matrigel containing medium. After an overnight incubation (17-22 hours), cells were treated with VS-6766 (RAF/MEK clamp)+/−DDR pathway inhibitor (e.g., DDR pathway inhibitor that targets WEE1, e.g., ZN-C3) for 7 days. VS-6766 was used at 1:5 dilutions starting at 5 μM and ZN-C3 was used at 1:3 dilutions starting at 5 μM. Cell viability was measured using the cell viability CellTiter-Glo assay.
(§2) Raw data and metadata files were processed with a custom R-script for single agent and combination activity. Bliss, Loewe, Highest Single Agent (HSA) and ZIP synergy analysis were performed to generate a composite synergy score. Summary graphics and reports were saved for visualization and further analysis.

[2] = system: endometrial cancer cell lines; assay: 3D proliferation assay with synergy analysis, endometrial panel; conditions: VS-6766 combined with ZN-C3 (WEE1); panel of 6 endometrial cancer cell lines; 3D Matrigel, 7 days, CellTiter-Glo; FIG. 3, 4
Experimental: as §1, §2

[3] = system: ovarian cancer cell lines; assay: 3D proliferation assay with synergy analysis, ovarian panel; conditions: VS-6766 combined with ZN-C3 (WEE1); panel of 12 ovarian cancer cell lines; 3D Matrigel, 7 days, CellTiter-Glo; FIG. 3, 4
Experimental: as §1, §2

[4] = system: NSCLC KRAS mutant cell lines; assay: 3D proliferation assay with synergy analysis, NSCLC panel; conditions: VS-6766 combined with ZN-C3 (WEE1); panel of 9 NSCLC KRAS mutant cell lines; 3D Matrigel, 7 days, CellTiter-Glo; FIG. 1, 2
Experimental: as §1, §2

Measured: synergy with ZN-C3 in reducing cell viability (composite of Bliss, Loewe, HSA and ZIP)

CNS(=O)(=O)Nc1nccc(Cc2c(C)c3ccc(Oc4ncccn4)cc3oc2=O)c1F [VS-6766]
synergistic: all assays above
